Read-outs that look alike come from different tables or passages of the source. Marks after values point to notes of the source that are not given here.
Experiments:
clinical = conditions: male, human, in vivo
Method: The single- and multiple-dose pharmacokinetics of cilansetron 8 mg administered intravenously have been studied in a randomized, double-blind, placebo controlled, parallel group study in 12 male subjects (10 subjects received cilansetron 8 mg and 2 received placebo, administered as a 30-minute infusion). […] Doses on pharmacokinetic days were administered under fasted conditions. […] Renal elimination was again observed to be negligible (≦1% of dose).

[1] = both, human, in vivo
Method: The effect of hepatic impairment on the pharmacokinetics of cilansetron was evaluated in a multiple-dose, parallel group study in 14 healthy and 14 moderately to severely hepatically impaired male and female subjects, aged 41-70 years. Impaired subjects (Child-Pugh score 7 to 11) were matched to healthy subjects by age (±2 years), sex, menstrual status, and smoking history status. All subjects received oral cilansetron 8 mg TID on Days 1 to 5, and a single dose on the morning of Day 6. […] Blood samples were also collected at predose on Day 1, and at predose, 1 hour and 1.5 hours postdose on Day 6, for measurement of cilansetron protein binding in serum.

[2] = target: purified human serum albumin (Homo sapiens, UniProt P02768); assay type: in vitro ADME
Sequence of purified human serum albumin (P02768 25-609): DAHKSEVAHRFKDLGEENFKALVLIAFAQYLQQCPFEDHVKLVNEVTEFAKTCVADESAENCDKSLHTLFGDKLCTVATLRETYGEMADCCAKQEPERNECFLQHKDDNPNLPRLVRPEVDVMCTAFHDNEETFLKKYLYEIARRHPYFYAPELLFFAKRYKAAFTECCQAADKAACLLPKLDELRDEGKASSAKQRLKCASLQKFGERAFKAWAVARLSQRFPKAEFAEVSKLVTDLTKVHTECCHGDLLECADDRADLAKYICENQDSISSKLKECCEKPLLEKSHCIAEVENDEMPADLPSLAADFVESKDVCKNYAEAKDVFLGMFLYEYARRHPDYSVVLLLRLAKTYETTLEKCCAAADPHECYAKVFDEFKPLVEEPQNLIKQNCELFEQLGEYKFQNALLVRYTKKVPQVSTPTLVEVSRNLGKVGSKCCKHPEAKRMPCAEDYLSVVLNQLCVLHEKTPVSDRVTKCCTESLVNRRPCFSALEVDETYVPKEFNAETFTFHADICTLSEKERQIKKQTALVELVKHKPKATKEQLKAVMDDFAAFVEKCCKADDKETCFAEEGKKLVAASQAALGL
Method: (§1) Protein binding was also evaluated in an in vitro study in human, mouse, rat, and dog plasma using equilibrium dialysis (12-14K molecular weight cut-off membrane). This study measured the binding of (^14C)-cilansetron in plasma at nominal concentrations (30, 90, and 300 ng/mL) which are much higher than those encountered in vivo in humans. This study also measured the binding of (^14C)-cilansetron to purified human serum albumin at cilansetron concentrations ranging from 30-3000 ng/mL and to purified human alpha-1 acid glycoprotein (AAG) at concentrations ranging from 30-10000 ng/mL.

[3] = assay type: in vitro ADME
Method: as §1

[4] = test system: purified human alpha-1 acid glycoprotein (AAG); assay type: in vitro ADME
Method: as §1

CYP1A2 = CYP1A2 (Homo sapiens, UniProt P05177); assay: biochemical
Sequence of CYP1A2 (P05177 whole entry): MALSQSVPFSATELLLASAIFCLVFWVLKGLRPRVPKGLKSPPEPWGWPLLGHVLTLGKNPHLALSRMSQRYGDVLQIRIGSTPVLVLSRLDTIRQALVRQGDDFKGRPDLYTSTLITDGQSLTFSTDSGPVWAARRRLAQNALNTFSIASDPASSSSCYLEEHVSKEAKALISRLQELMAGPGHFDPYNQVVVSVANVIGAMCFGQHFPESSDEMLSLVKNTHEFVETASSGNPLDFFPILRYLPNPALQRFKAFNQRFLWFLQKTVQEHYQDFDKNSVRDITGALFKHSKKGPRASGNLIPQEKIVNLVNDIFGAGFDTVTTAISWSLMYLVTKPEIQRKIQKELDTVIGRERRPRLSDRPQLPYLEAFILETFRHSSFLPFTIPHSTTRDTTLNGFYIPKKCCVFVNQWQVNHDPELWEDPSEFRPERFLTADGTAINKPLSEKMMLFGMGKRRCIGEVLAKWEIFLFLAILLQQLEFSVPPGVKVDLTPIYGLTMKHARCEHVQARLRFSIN

[5] = test system: diarrhea-predominant IBS subjects; assay: Study S241.3.011: safety; assay type: in vivo, human
Description: The primary efficacy parameter was the number of months that a subject was a responder for IBS symptoms (abdominal pain, abdominal discomfort, abnormal bowel habits) over the 12-week treatment period. A responder for a month (monthly responder) was defined as a subject who answered the weekly question with “yes” at least twice for that month. The two main secondary efficacy parameters were the monthly responder rates based on the “adequate relief” questions regarding abdominal pain/discomfort and abnormal bowel habits during the 12-week treatment period. The overall response rate and responder rate for the weekly diary questions on adequate relief at each month and all months, the adequate relief rate, the number of subjects with adequate relief by week, daily diary questions, IBS-QOL scores, and the interruption of activities were also assessed. Safety was evaluated by physical examination, ECG, vital signs, laboratory evaluations, concomitant medications, and AEs.

[6] = both, human; for Fraction unbound ratio All Renal Groups Combined:Healthy / Fraction unbound ratio Mild:Healthy / Fraction unbound ratio Moderate:Healthy / Fraction unbound ratio Severe:Healthy: serum
Method: The ex vivo protein binding of cilansetron and its 4-hydroxy metabolites has been measured in serum samples collected in a multiple-dose study in healthy and renally impaired male and female subjects, aged 33-74 years. […] Healthy subjects were matched to renally-impaired subjects with respect to age, weight, gender, and smoking status. All subjects received oral cilansetron 2 mg TID on Days 1 to 5, and a single dose on the morning of Day 6.

healthy subjects = assay: Study K.241.5012: colonic transit time, healthy young subjects; assay type: in vivo, human; conditions: mean (SD); for Transit Times, Colon Total: null hypothesis not rejected vs placebo
Description: The effect of cilansetron on gastric emptying time and colonic transit time has been studied in 1 clinical study in healthy young subjects and 2 studies in elderly subjects. For measurement of gastric emptying time, breath samples for the determination of the ^12C/^13C ratio were taken on the last day of each treatment period immediately after ingestion of a ^13C labeled meal. The patients' breath was collected in separate 15-minute intervals, for four hours in total. ^13CO2 measurements were performed with an isotope ratio mass spectrometer. The half-life (TK) and lag-time (Tlag), which describe the duration of gastric emptying, were used as the primary parameters to evaluate gastric emptying time. In all 3 studies, colonic transit time was measured by administration of radio-opaque markers for the last six days of each treatment period, followed by a single abdominal X-ray image at 24 hours after ingestion of the last set of markers. The numbers of markers within the colon were used to calculate segmental (right colon, left colon, and rectosigmoid) and total colonic transit time.
Study K.241.5013 was a randomized, double-blind, placebo-controlled, 3-way crossover study in 12 healthy male subjects (ITT population), aged 20-27 years. Subjects received cilansetron 4 mg, cilansetron 8 mg, or placebo orally TID for 14 days during each of the treatment periods, with a 14-day washout between periods. The primary efficacy parameter was the total mean colonic transit time during each treatment and the secondary parameters were the segmental colonic transit times and the gastric emptying measurements. A one-sided Dunnett t-test procedure was used to compare efficacy parameters between the cilansetron and placebo treatments.

For `Cc1nccn1C[C@H]1CCc2c(c3cccc4c3n2CCC4)C1=O` [Cilansetron, (R)-(−)-4,5,6,8,9,10-hexahydro-10-[(2-methyl-1H-imidazol-1-yl)methyl]-11H-pyrido-[3,2,1-jk]-carbazol-11-one], the “Intersubject % CV for AUC” value (clinical) was 31-34%, the “Intrasubject % CV” value (clinical) was 18% and the Renal elimination (clinical) was ≤ 1 % of dose. The “% Dose (urine)” value (clinical; iv) was 0.44 (70) %, the “Linearity Ratio” value (clinical; iv) was 118% and the DN-AUC (clinical; iv, 8 mg) was 22.8 (31) ng · h/mL. It also gave an AUC (clinical; iv, 8 mg, AUC) of 182 ng·h/mL, a clearance (clinical; iv, 8 mg, CL) of 792 mL/min and a CL renal (clinical; iv, 8 mg, CLr) of 3.29 mL/min. The clearance (clinical; iv, 8 mg, Systemic plasma clearance) was 800 mL/min, the half-life (clinical; iv, 8 mg, T½) was 1.7 h and the “Increase in half-life with hepatic impairment” value [1] was 2 fold. The “AUC increase with hepatic impairment” value ([1]; 8 mg) was 88%, the “Cmax increase with hepatic impairment” value ([1]; 8 mg) was 22% and the “AUC(0-τ) Ratio” value ([1]; po, 8 mg) was 1.88. For the same compound, the “AUC(0-τ), Geom. LS Mean” value ([1]; po, 8 mg) was 178 ng·h/mL, the Cmax ([1]; po, 8 mg) was 75.2 (40) ng/mL and the “Cmax Ratio” value ([1]; po, 8 mg) was 1.22. For the same compound, the “Cmax, Geom. LS Mean” value ([1]; po, 8 mg) was 68.7 ng/mL, the T½ ([1]; po, 8 mg) was 4.37 (25) h and the Vz/F ([1]; po, 8 mg) was 303 (45) L. For the same compound, the “Binding to human albumin” value [2] was 65.9%, the Plasma binding ([3]; dog) was 86.5% and the Plasma binding ([3]; mouse) was 83.3%. For the same compound, the Plasma binding ([3]; rat) was 88.2%, the “Binding to AAG” value [4] was “around 90%” and the IC50 (CYP1A2) was 60 µM. For the same compound, the “Number of subjects who died during the three-month treatment period” value ([5]; 2 mg TID, 388 randomized, S241.3.011) was 1 (<1) n (%), the Constipation ([5]; female, human, in vivo, 3 months) was 26% and the “Fecal occult blood positive and/or blood in stool” value ([5]; human, in vivo) was 7%. For the same compound, the Abdominal distension ([5]; human, in vivo, 3 months) was 5%, the “Abdominal pain NOS” value ([5]; human, in vivo, 3 months) was 6% and the Abdominal pain upper ([5]; human, in vivo, 3 months) was 2%. For the same compound, the Constipation ([5]; human, in vivo, 3 months) was 20%, the Flatulence ([5]; human, in vivo, 3 months) was 4% and the “Serious AEs” value ([5]; human, in vivo, 3 months) was 2%. The “Subjects with at least one TEAE” value ([5]; human, in vivo, 3 months) was 69%, the “At least one TEAE, entire four-month period” value ([5]; human, in vivo, 4 months) was 78% and the “TEAEs leading to permanent discontinuation” value ([5]; in vivo) was “Eleven”. The Constipation ([5]; male, human, in vivo, 3 months) was 8%, the “Protein bound on average” value [6] was 96.0-96.6% and the “Fraction unbound ratio All Renal Groups Combined:Healthy” value [6] was 81 (62, 105) %. For the same compound, the “Fraction unbound ratio Mild:Healthy” value [6] was 86 (61, 121) %, the “Fraction unbound ratio Moderate:Healthy” value [6] was 84 (54, 131) % and the “Fraction unbound ratio Severe:Healthy” value [6] was 73 (52, 102) %. The “Fraction unbound ratio All Renal Groups Combined:Healthy” value ([6]; 1 h) was 94 (76, 116) %, the “Fraction unbound ratio Mild:Healthy” value ([6]; 1 h) was 91 (70, 119) % and the “Fraction unbound ratio Moderate:Healthy” value ([6]; 1 h) was 105 (79, 140) %. The “Fraction unbound ratio Severe:Healthy” value ([6]; 1 h) was 87 (65, 115) %, the “Fraction unbound ratio All Renal Groups Combined:Healthy” value ([6]; […]) was 88 (70, 109) % and the “Fraction unbound ratio Mild:Healthy” value ([6]; […]) was 92 (69, 123) %. The “Fraction unbound ratio Moderate:Healthy” value ([6]; […]) was 90 (66, 123) %, the “Fraction unbound ratio Severe:Healthy” value ([6]; […]) was 81 (59, 110) % and the “Transit Times, Colonic Segments Left” value (healthy subjects; 4 mg TID oral 14 days) was 24.2 (12.9) hours. For the same compound, the “Transit Times, Colonic Segments Rectosigmold” value (healthy subjects; 4 mg TID oral 14 days) was 15.8 (13.5) hours, the “Transit Times, Colonic Segments Right” value (healthy subjects; 4 mg TID oral 14 days) was 9.4 (9.5) hours and the “Transit Times, Colon Total” value (healthy subjects; 4 mg TID oral 14 days) was 49.4 (24.6)^a hours. The “Transit Times, Colonic Segments Left” value (healthy subjects; 8 mg TID oral 14 days) was 25.8 (16.7) hours, the “Transit Times, Colonic Segments Rectosigmold” value (healthy subjects; 8 mg TID oral 14 days) was 16.2 (11.9) hours and the “Transit Times, Colonic Segments Right” value (healthy subjects; 8 mg TID oral 14 days) was 11.8 (13.9) hours. For the same compound, the “Transit Times, Colon Total” value (healthy subjects; 8 mg TID oral 14 days) was 53.8 (28.5)^a hours.

Reference: patent US20090176817A1, “Method of Treatment of Diarrhea-Predominant Irritable Bowel Syndrome in a Subject” (priority 2005, published 2009)
